Test results as given in ChEMBL document CHEMBL1201862, “PubChem BioAssay data set” (2004).
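Protocol summary: plate cells (96-well), add compound at 5 concentrations, incubate 48 h, interpolate endpoints linearly. GI50 = concentration required for 50% inhibition of growth.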 Active and inactive are the calls of the source. Rule as the data show it: active = GI50 up to about 1.1 µM and inactive = higher.

How the values were obtained:
Assay in all cases: growth of human tumour cells (NCI), 48 h
LXFL 529 = test system: LXFL 529
HOP-18 = test system: HOP-18
DLD-1 = test system: DLD-1
DMS-114 = test system: DMS-114
XF498 = test system: XF498
M19-MEL = test system: M19-MEL
DMS-273 = test system: DMS-273
KM-20L2 = test system: KM-20L2
RXF 631 = test system: RXF 631

Measured: GI50

Cc1cc(S(=O)(=O)O)c(NC(=O)C(=O)C2C=CCS2(=O)=O)cc1Cl (stereo unspecified)
inactive: LXFL 529 > 100 µM | HOP-18 > 100 µM | DLD-1 > 100 µM | DMS-114 > 100 µM | XF498 > 100 µM | M19-MEL > 100 µM | DMS-273 > 100 µM | KM-20L2 > 100 µM

COC1C(=[N+]=[N-])C(=O)NC(=O)N1C1OC(COC(c2ccccc2)(c2ccccc2)c2ccccc2)C(O)C1O (stereo unspecified)
inactive: LXFL 529 17.6 µM | HOP-18 21.1 µM | DLD-1 17.3 µM | M19-MEL 19.4 µM | KM-20L2 17.2 µM

CCOC(=O)C(C(C)=O)C1CC=CC1 (stereo unspecified)
inactive: LXFL 529 > 100 µM | RXF 631 > 100 µM | DLD-1 > 100 µM | DMS-114 > 100 µM | XF498 > 100 µM | DMS-273 > 100 µM | KM-20L2 > 100 µM

O=c1[nH]c(=O)n(C2CC(O)C(CO)O2)cc1C#Cc1cc(C(F)(F)F)cc(C(F)(F)F)c1 (stereo unspecified)
inactive: LXFL 529 > 30.1 µM | RXF 631 21.3 µM | DLD-1 > 29.4 µM | DMS-114 > 31.2 µM | XF498 21 µM | M19-MEL > 31.3 µM | KM-20L2 > 45.4 µM

CC1(C)CCC[C@@]2(C)C1C[C@H](O)[C@@]1(C)O[C@@](C)([C@H](O)CO)CCC21 (stereo partly specified)
inactive: LXFL 529 43.2 µM | HOP-18 26.1 µM | RXF 631 86.9 µM | DMS-114 25.3 µM | XF498 38.7 µM | M19-MEL 40.8 µM | DMS-273 44.2 µM | KM-20L2 40.5 µM

COc1ccc(N2C(=O)c3c(c4[nH]c5ccc(OC)cc5c4c4ccc(C(C)(C)C)cc34)C2=O)cc1
inactive: LXFL 529 > 100 µM | HOP-18 > 100 µM | DLD-1 > 100 µM | DMS-114 > 100 µM | XF498 > 100 µM | M19-MEL > 100 µM | DMS-273 > 100 µM

COc1ccc(C[C@H](N)C(=O)N2C[C@H](CO)C[C@H](n3cnc4c(N(C)C)ncnc43)C2)cc1
inactive: LXFL 529 > 100 µM | HOP-18 45.7 µM | DLD-1 > 100 µM | DMS-114 > 100 µM | M19-MEL > 100 µM | DMS-273 > 100 µM | KM-20L2 > 100 µM

O=C1CSC(C(/N=N/c2ccc(Cl)cc2)c2nc3ccccc3[nH]2)=N1 (stereo unspecified)
inactive: LXFL 529 52.6 µM | DLD-1 65.5 µM | DMS-114 26.2 µM | XF498 17.8 µM | M19-MEL 85.7 µM | DMS-273 60.4 µM | KM-20L2 > 100 µM
